# System: SNU-16
# Assay: Cell SNU-16 assay
# Format: cell-based
# Details: Homo sapiens, SNU-16, SNU-16 cells
row,IC50 [µM],Structure (SMILES)
1,≤ 0.1,Cc1ccnc(Oc2ccc(-c3c(-c4ccc(NC(=O)C5=COCC5)cc4)n(C)c4ncnc(N)c34)cc2)n1 [Example 952]
2,≤ 0.1,"C#Cc1cc(C)c(-c2c(C3=CC[C@@H](C(=O)N4CCCC4)CC3)c3c(N)ncnc3n2C)cn1 (single isomer, unassigned) [Example 1142]"
3,1 to 100,C=C(C)C(=O)Nc1ccc(-c2c(-c3coc4ccccc34)c3c(N)ncnc3n2C)cc1 [Example 1273]
4,≤ 0.1,C#Cc1nc2ccc(-c3c(-c4ccc(Oc5nccc(C)n5)cc4)c4c(N)ncnc4n3C)cc2o1 [Example 1167]
5,≤ 0.1,C=CC(=O)Nc1ccc(-c2c(-c3ccc(Oc4nccc(C)n4)c(F)c3)c3c(C)ncnc3n2C)c(Cl)c1 [Example 1094]
6,≤ 0.1,C#Cc1nc(C)c(-c2c(-c3ccc(Oc4nccc(C)n4)c(F)c3)c3c(N)ncnc3n2C)c(C)n1 [Example 1438]
7,≤ 0.1,C=C(C)C(=O)Nc1ccc(-c2c(-c3ccc(C(=O)N[C@H]4C[C@H](F)C4)c(OC)c3)c3c(N)ncnc3n2C)cc1 [Example 965]
8,≤ 0.1,C#Cc1nc2cc(-c3c(C4=CC[C@@H](C(=O)N5CCCC5)CC4)c4c(N)ncnc4n3C)ccc2n1C [Example 1369]
9,≤ 0.1,C#Cc1cc(C)c(-c2c(-c3ccc(Oc4nccc(C)n4)c(F)c3)c3c(C)ncnc3n2C)c(F)n1 [Example 1400]
10,0.25 to 1,C=C(C)C(=O)Nc1ccc(-c2c(C3=CCN(C(=O)N4CCCC4)CC3)c3c(N)ncnc3n2C)cc1 [Example 923]
11,≤ 0.1,"C=C(C)C(=O)Nc1ccc(-c2c(C3=CC[C@H](C(=O)N4CC[C@@H]5C[C@@H]54)CC3)c3c(N)ncnc3n2C)cc1 (single isomer, unassigned) [Example 1038]"
12,0.25 to 1,C=CC(=O)N1CCC(O)(c2c(-c3ccc(Oc4cccc(C)n4)cc3)c3c(N)ncnc3n2C)C1 (centres unmarked) [Example 833]
13,1 to 100,C=C(C)C(=O)Nc1ccc(-c2c(-c3ccc4cccnc4c3)c3c(N)ncnc3n2C)cc1 [Example 1277]
14,≤ 0.1,C#Cc1cc(C)c(-c2c(C3=CC[C@H](C(=O)N4CCC[C@H]4C)CC3)c3c(N)ncnc3n2C)c(F)n1 [Example 1319]
15,0.25 to 1,C=CC(=O)Nc1ccc(-c2c(-c3ccc(Oc4cccc(C)n4)c(F)c3)c3c(N)ncnc3n2C)cc1 [Example 1053]
16,0.25 to 1,C=C(C)C(=O)Nc1ccc(-c2c(-c3ccc4cnccc4c3)c3c(N)ncnc3n2C)cc1 [Example 1286]
17,0.1 to 0.25,"C=CC(=O)N1C[C@@H](c2c(-c3ccc(C(=O)N4CCCCC4)cc3)c3c(N)ncnc3n2C)C[C@@H]1C (single isomer, unassigned) [Example 884]"
18,0.25 to 1,C#Cc1cc(C)c(-c2c(C3=CC[C@H](C(=O)N4CCCC45CC5)CC3)c3c(N)ncnc3n2C)cn1 [Example 1325]
19,0.25 to 1,C#Cc1nc2cc(-c3c(-c4ccc(Oc5nccc(C)n5)c(F)c4)c4c(N)ncnc4n3C)ccc2[nH]1 [Example 1202]

row,IC50 [µM],Structure (SMILES)
1,≤ 0.1,C#Cc1cc2c(cn1)-c1c(-c3ccc(Oc4nccc(C)n4)c(F)c3)c3c(N)ncnc3n1CCO2 [Example 1440]
2,≤ 0.1,"C=C(C)C(=O)Nc1ccc(-c2nn3ccnc(N)c3c2C2=CC[C@@H](C(=O)N3CCCC3)CC2)cc1 (single isomer, unassigned) [Example 867]"
3,0.25 to 1,C#Cc1ccc(-c2c(C3=CC[C@H](C(=O)N4CCCC45COC5)CC3)c3c(N)ncnc3n2C)c(C)n1 [Example 1304]
4,1 to 100,C=C(C)C(=O)Nc1ccc(-c2c(-c3ccc4nc(C)oc4c3)c3c(N)ncnc3n2C)cc1 [Example 1274]
5,≤ 0.1,"C=C(C)C(=O)Nc1ccc(-c2c(-c3ccc4c(c3)OC[C@H]4c3cccc(C)n3)c3c(N)ncnc3n2C)cc1 (single isomer, unassigned) [Example 920]"
6,1 to 100,C=C(C)C(=O)Nc1ccc(-c2c(C3=CC[C@H](C(=O)N4CCC[C@@H]4C4CC4)CC3)c3c(N)ncnc3n2C)cc1 [Example 1058]
7,0.25 to 1,"C=CC(=O)N[C@@H]1CCc2cc(-c3c(-c4ccc(Oc5nccc(C)n5)cc4)c4c(N)ncnc4n3C)ccc21 (single isomer, unassigned) [Example 942]"
8,0.1 to 0.25,C=C(C)C(=O)Nc1ccc(-c2c(C3=CC[C@@H](C(=O)N4CCCC[C@H]4C)CC3)c3c(N)ncnc3n2C)cc1 [Example 992]
9,≤ 0.1,C#Cc1ncc(-c2c(-c3ccc(Oc4nccc(C)n4)c(F)c3)c3c(C)ncnc3n2C)c(C)n1 [Example 1170]
10,0.25 to 1,COCC#Cc1cc(C)c(-c2c(C3=CC[C@@H](C(=O)N4CCC[C@H]4C)CC3)c3c(N)ncnc3n2C)cn1 [Example 1383]
11,≤ 0.1,"C#Cc1ncc(-c2c(C3=CC[C@@H](C(=O)N4CCCC4)CC3)c3c(C)ncnc3n2C)c(C)n1 (single isomer, unassigned) [Example 1166]"
12,≤ 0.1,CC1=CCN(c2ccc(-c3c(-c4ccc(Oc5nccc(C)n5)cc4)c4c(N)ncnc4n3C)cn2)C1=O [Example 1078]
13,1 to 100,"C=CC(=O)N[C@@H]1CCc2ccc(-c3c(-c4ccc(Oc5nccc(C)n5)cc4)c4c(N)ncnc4n3C)cc2C1 (single isomer, unassigned) [Example 944]"
14,1 to 100,Cn1c(-c2ccc(NC(=O)CC#N)cc2)c(-c2ccc(C(=O)N3CCCC3)cc2)c2c(N)ncnc21 [Example 881]
15,≤ 0.1,C=CC(=O)Nc1cc(-c2c(-c3ccc(Oc4cccc(C)n4)cc3)c3c(N)ncnc3n2C)n(C)n1 [Example 1098]
16,≤ 0.1,C=C(C)C(=O)Nc1ccc(-c2c(-c3ccc4c(c3)OCC4c3cccc(C)n3)c3c(N)ncnc3n2C)cc1 (centres unmarked) [Example 907]
17,0.25 to 1,C#Cc1cc2c(cn1)-c1c(-c3ccc(Oc4nccc(C)n4)c(F)c3)c3c(N)ncnc3n1[C@@H](C)CO2 [Example 1442]
18,≤ 0.1,C=C1CCN(c2ccc(-c3c(-c4ccc(Oc5nccc(C)n5)cc4)c4c(N)ncnc4n3C)c(C)c2)C1=O [Example 1096]

row,Structure (SMILES),IC50 [µM]
1,C=CC(=O)N1C2COCC1C(c1c(-c3ccc(Oc4cccc(C)n4)cc3)c3c(N)ncnc3n1C)C2 (centres unmarked) [Example 812],≤ 0.1

# Same assay, conditions: SNU-16 cells
row,IC50 [µM],Structure (SMILES)
1,0.25 to 1,C#Cc1cc(OC)c(-c2c(C3=CC[C@@H](C(=O)N4CCC[C@H]4C#N)CC3)c3c(C)ncnc3n2C)c(C)n1 [Example 1476]
2,0.1 to 0.25,"C#Cc1cc(C)c(-c2c(C3=CC[C@@H](C(=O)N4CCC[C@H]4C#N)CC3)c3c(C)ncnc3n2C)c(C)n1 (atropisomer, axis not shown) [Example 1466]"

# Target: FGFR2 (Homo sapiens (Human), UniProt P21802)
# Assay: Biochemical FGFR2 Caliper assay
# Details: not given
# Sequence of FGFR2 (P21802 22-821): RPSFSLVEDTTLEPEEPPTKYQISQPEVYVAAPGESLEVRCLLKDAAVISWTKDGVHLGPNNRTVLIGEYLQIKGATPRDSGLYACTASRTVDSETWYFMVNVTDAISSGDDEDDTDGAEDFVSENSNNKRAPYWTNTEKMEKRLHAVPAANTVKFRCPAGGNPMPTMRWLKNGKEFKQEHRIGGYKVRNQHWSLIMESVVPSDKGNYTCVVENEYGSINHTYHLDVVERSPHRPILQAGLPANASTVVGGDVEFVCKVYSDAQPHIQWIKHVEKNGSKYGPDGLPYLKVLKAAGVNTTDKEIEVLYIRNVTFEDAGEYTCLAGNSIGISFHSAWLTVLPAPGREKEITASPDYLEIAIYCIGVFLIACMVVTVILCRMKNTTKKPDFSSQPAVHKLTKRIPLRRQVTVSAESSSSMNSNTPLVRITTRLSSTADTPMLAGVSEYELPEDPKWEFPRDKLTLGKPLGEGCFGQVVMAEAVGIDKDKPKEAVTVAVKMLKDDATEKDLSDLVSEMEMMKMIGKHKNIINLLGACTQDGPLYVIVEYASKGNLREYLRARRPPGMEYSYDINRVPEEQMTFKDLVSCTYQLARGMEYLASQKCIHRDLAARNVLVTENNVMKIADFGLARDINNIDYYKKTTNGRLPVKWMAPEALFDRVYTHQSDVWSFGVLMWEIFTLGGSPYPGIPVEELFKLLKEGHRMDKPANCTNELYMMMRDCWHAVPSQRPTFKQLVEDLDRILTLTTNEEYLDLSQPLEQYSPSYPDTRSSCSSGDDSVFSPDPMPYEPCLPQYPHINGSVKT
row,IC50 [µM],Structure (SMILES)
1,< 0.1,Cc1ccnc(Oc2ccc(-c3c(-c4ccc(NC(=O)C5=COCC5)cc4)n(C)c4ncnc(N)c34)cc2)n1 [Example 952]
2,< 0.1,"C#Cc1cc(C)c(-c2c(C3=CC[C@@H](C(=O)N4CCCC4)CC3)c3c(N)ncnc3n2C)cn1 (single isomer, unassigned) [Example 1142]"
3,1 to 100,C=C(C)C(=O)Nc1ccc(-c2c(-c3coc4ccccc34)c3c(N)ncnc3n2C)cc1 [Example 1273]
4,< 0.1,C#Cc1nc2ccc(-c3c(-c4ccc(Oc5nccc(C)n5)cc4)c4c(N)ncnc4n3C)cc2o1 [Example 1167]
5,< 0.1,C=CC(=O)Nc1ccc(-c2c(-c3ccc(Oc4nccc(C)n4)c(F)c3)c3c(C)ncnc3n2C)c(Cl)c1 [Example 1094]
6,< 0.1,C#Cc1nc(C)c(-c2c(-c3ccc(Oc4nccc(C)n4)c(F)c3)c3c(N)ncnc3n2C)c(C)n1 [Example 1438]
7,< 0.1,C=C(C)C(=O)Nc1ccc(-c2c(-c3ccc(C(=O)N[C@H]4C[C@H](F)C4)c(OC)c3)c3c(N)ncnc3n2C)cc1 [Example 965]
8,< 0.1,C#Cc1nc2cc(-c3c(C4=CC[C@@H](C(=O)N5CCCC5)CC4)c4c(N)ncnc4n3C)ccc2n1C [Example 1369]
9,< 0.1,C#Cc1cc(C)c(-c2c(-c3ccc(Oc4nccc(C)n4)c(F)c3)c3c(C)ncnc3n2C)c(F)n1 [Example 1400]
10,1 to 100,C=C(C)C(=O)Nc1ccc(-c2c(C3=CCN(C(=O)N4CCCC4)CC3)c3c(N)ncnc3n2C)cc1 [Example 923]
11,< 0.1,"C=C(C)C(=O)Nc1ccc(-c2c(C3=CC[C@H](C(=O)N4CC[C@@H]5C[C@@H]54)CC3)c3c(N)ncnc3n2C)cc1 (single isomer, unassigned) [Example 1038]"
12,0.1 to 0.25,C=CC(=O)N1CCC(O)(c2c(-c3ccc(Oc4cccc(C)n4)cc3)c3c(N)ncnc3n2C)C1 (centres unmarked) [Example 833]
13,0.25 to 1,C=C(C)C(=O)Nc1ccc(-c2c(-c3ccc4cccnc4c3)c3c(N)ncnc3n2C)cc1 [Example 1277]
14,< 0.1,C#Cc1cc(C)c(-c2c(C3=CC[C@H](C(=O)N4CCC[C@H]4C)CC3)c3c(N)ncnc3n2C)c(F)n1 [Example 1319]
15,0.1 to 0.25,C=CC(=O)Nc1ccc(-c2c(-c3ccc(Oc4cccc(C)n4)c(F)c3)c3c(N)ncnc3n2C)cc1 [Example 1053]
16,0.25 to 1,C=C(C)C(=O)Nc1ccc(-c2c(-c3ccc4cnccc4c3)c3c(N)ncnc3n2C)cc1 [Example 1286]
17,1 to 100,"C=CC(=O)N1C[C@@H](c2c(-c3ccc(C(=O)N4CCCCC4)cc3)c3c(N)ncnc3n2C)C[C@@H]1C (single isomer, unassigned) [Example 884]"
18,0.25 to 1,C#Cc1cc(C)c(-c2c(C3=CC[C@H](C(=O)N4CCCC45CC5)CC3)c3c(N)ncnc3n2C)cn1 [Example 1325]
19,1 to 100,C#Cc1nc2cc(-c3c(-c4ccc(Oc5nccc(C)n5)c(F)c4)c4c(N)ncnc4n3C)ccc2[nH]1 [Example 1202]
20,< 0.1,C#Cc1cc2c(cn1)-c1c(-c3ccc(Oc4nccc(C)n4)c(F)c3)c3c(N)ncnc3n1CCO2 [Example 1440]

row,IC50 [µM],Structure (SMILES)
1,< 0.1,"C=C(C)C(=O)Nc1ccc(-c2nn3ccnc(N)c3c2C2=CC[C@@H](C(=O)N3CCCC3)CC2)cc1 (single isomer, unassigned) [Example 867]"
2,1 to 100,C#Cc1cc(OC)c(-c2c(C3=CC[C@@H](C(=O)N4CCC[C@H]4C#N)CC3)c3c(C)ncnc3n2C)c(C)n1 [Example 1476]
3,0.25 to 1,C#Cc1ccc(-c2c(C3=CC[C@H](C(=O)N4CCCC45COC5)CC3)c3c(N)ncnc3n2C)c(C)n1 [Example 1304]
4,1 to 100,C=C(C)C(=O)Nc1ccc(-c2c(-c3ccc4nc(C)oc4c3)c3c(N)ncnc3n2C)cc1 [Example 1274]
5,< 0.1,"C=C(C)C(=O)Nc1ccc(-c2c(-c3ccc4c(c3)OC[C@H]4c3cccc(C)n3)c3c(N)ncnc3n2C)cc1 (single isomer, unassigned) [Example 920]"
6,1 to 100,C=C(C)C(=O)Nc1ccc(-c2c(C3=CC[C@H](C(=O)N4CCC[C@@H]4C4CC4)CC3)c3c(N)ncnc3n2C)cc1 [Example 1058]
7,0.25 to 1,"C=CC(=O)N[C@@H]1CCc2cc(-c3c(-c4ccc(Oc5nccc(C)n5)cc4)c4c(N)ncnc4n3C)ccc21 (single isomer, unassigned) [Example 942]"
8,1 to 100,C=C(C)C(=O)Nc1ccc(-c2c(C3=CC[C@@H](C(=O)N4CCCC[C@H]4C)CC3)c3c(N)ncnc3n2C)cc1 [Example 992]
9,< 0.1,C#Cc1ncc(-c2c(-c3ccc(Oc4nccc(C)n4)c(F)c3)c3c(C)ncnc3n2C)c(C)n1 [Example 1170]
10,0.25 to 1,COCC#Cc1cc(C)c(-c2c(C3=CC[C@@H](C(=O)N4CCC[C@H]4C)CC3)c3c(N)ncnc3n2C)cn1 [Example 1383]
11,< 0.1,"C#Cc1ncc(-c2c(C3=CC[C@@H](C(=O)N4CCCC4)CC3)c3c(C)ncnc3n2C)c(C)n1 (single isomer, unassigned) [Example 1166]"
12,< 0.1,CC1=CCN(c2ccc(-c3c(-c4ccc(Oc5nccc(C)n5)cc4)c4c(N)ncnc4n3C)cn2)C1=O [Example 1078]
13,1 to 100,"C=CC(=O)N[C@@H]1CCc2ccc(-c3c(-c4ccc(Oc5nccc(C)n5)cc4)c4c(N)ncnc4n3C)cc2C1 (single isomer, unassigned) [Example 944]"
14,1 to 100,Cn1c(-c2ccc(NC(=O)CC#N)cc2)c(-c2ccc(C(=O)N3CCCC3)cc2)c2c(N)ncnc21 [Example 881]
15,< 0.1,C=CC(=O)Nc1cc(-c2c(-c3ccc(Oc4cccc(C)n4)cc3)c3c(N)ncnc3n2C)n(C)n1 [Example 1098]
16,< 0.1,C=C(C)C(=O)Nc1ccc(-c2c(-c3ccc4c(c3)OCC4c3cccc(C)n3)c3c(N)ncnc3n2C)cc1 (centres unmarked) [Example 907]
17,1 to 100,C#Cc1cc2c(cn1)-c1c(-c3ccc(Oc4nccc(C)n4)c(F)c3)c3c(N)ncnc3n1[C@@H](C)CO2 [Example 1442]
18,0.1 to 0.25,"C#Cc1cc(C)c(-c2c(C3=CC[C@@H](C(=O)N4CCC[C@H]4C#N)CC3)c3c(C)ncnc3n2C)c(C)n1 (atropisomer, axis not shown) [Example 1466]"
19,< 0.1,C=C1CCN(c2ccc(-c3c(-c4ccc(Oc5nccc(C)n5)cc4)c4c(N)ncnc4n3C)c(C)c2)C1=O [Example 1096]

row,Structure (SMILES),IC50 [µM]
1,C=CC(=O)N1C2COCC1C(c1c(-c3ccc(Oc4cccc(C)n4)cc3)c3c(N)ncnc3n1C)C2 (centres unmarked) [Example 812],< 0.1

# Reference: patent US11780845B2 (Relay Therapeutics, Inc., priority 2019, dated 2023)
